Measurements: publication PMC12194305, “Assessing Bioconcentration and Biotransformation of BDE-47 In Vitro: The Relevance of Bioavailable and Intracellular Concentrations” (Journal of Xenobiotics, 2025)

Columns and labels:
ZFL cells [1] = test: Cell exposure for bioaccumulation: Ccell, Cmedium and in vitro BCF (ratio and toxicokinetic fit); type: cell-based, zebrafish; settings: for BCFexp, 24 h / BCFexp, 48 h / BCFexp, 72 h: Ccell,exp/Cmedium
Method: A total of 2 × 10^6 ZFL cells were plated in P100 glass dishes and incubated for 24 h under standard culture conditions. Subsequently, the culture medium was replaced with a contaminated medium, which, according to the cell viability assay, maintained viability above 70% by the end of the exposure period (Section 2.3). Cells were exposed to 1.8 and 2.6 mg⋅L^−1 for 24, 48 and 72 h, in two independent experiments. Parallel experiments were conducted under identical conditions to assess losses: one set included cells without contaminated medium, and another consisted of contaminated medium without cells (“no cells”). The obtained pellets were collected from all exposure time, dried under a gentle stream of nitrogen and weighed on a precision analytical balance (±0.00001 g). Finally, the dried cell pellets and their corresponding medium collected at all exposure times, including the starting medium (“t = 0 h”), were stored at −20 °C until analysis.
Extraction of BDE-47 and its metabolites was performed simultaneously for each of the samples, cells, and exposure media. Finally, 500 μL of exposure medium was extracted with 500 μL of hexane: MTBE mixture (1:1) shaken vigorously with a vortex for 30 s. For cells, the pellet obtained (~5 mg) was treated with same solvents but assisted with an ultrasound probe for 1 min at 30% of amplitude and a pulse on/off, with 2 s/5 s for cell samples. The internal standards (IS) BDE-99 and TCS had been previously added. The mixture was centrifuged for 10 min at 10,000 rpm. The organic phase was separated, and the extraction step was repeated. Remaining extracts were evaporated to dryness under a gentle stream of nitrogen and reconstituted in 200 μL isooctane. A total of 80 μL of the volume obtained was derivatized with 20 μL of MTBSTFA at 70 °C for 30 min in the oven and injected into GC-μECD-MS for the OH-BDE quantification. PBDEs and MeO-BDEs were determined by direct injection of the remaining volume of isooctane extracts into the GC-µECD-MS, because PBDEs are not stable after the derivatization process. Due to the difference in concentration in the samples of the metabolites and BDE-47, a double determination was performed and diluted with isooctane for the detection of the latter, so that it was interpolated on the same calibration curve.
The GC–MS-µECD system was used for the separation and determination of BDE-47 and its metabolites. The MS was used for the identification and the µECD for their quantification. Both detectors operate simultaneously, thanks to the use of a flow splitter placed at the end of the chromatographic column. Sample (1 μL) were injected in splitless mode at 280 °C. Helium was used as carrier gas at a constant pressure of 22 psi. Column temperature was programmed to increase from 130 °C (1 min) to 222 °C (1 min) at a rate of 90 °C·min^−1, then to 245 °C (1 min) at 1 °C·min^−1 and finally to 280 °C (8 min) at 45 °C·min^−1. The μECD temperature was set at 320 °C and nitrogen was used as makeup gas (30 mL·min^−1). The flow ratio of the splitter was 1:1, thanks to the helium input and the restrictor length of each detector, according to the manual supplied by Agilent Technologies. m/z values for the SIM program are collected in Table S1.
The first quantitative estimation of BCF was carried out according to the definition of BCF in the official OECD 305 guideline; that is, the ratio between the chemical concentration in the cells (Ccell) and the chemical concentration of the surrounding medium (Cmedium). As explained earlier, Ccell can be determined experimentally (Ccell,exp) or by MBM (Ccell,MBM). Both these terms can be related to the experimentally determined concentration in the medium (Cmedium), the free concentration experimentally determined (Cfree,exp) or the free concentration estimated using MBM (Cfree,MBM). […]

ZFL cells [2] = test: Mass balance model (MBM) prediction of Cfree and Ccell; set-up: species or system zebrafish
Method: Ccell and Cfree were determined for the BDE-47 using Fisher et al.’s mass balance model (MBM). In brief, the test system parameters for the experiment (Table S3) and BDE-47 distribution parameters (Table S4) estimated by the UFZ-LSER Calculation Partition System tool were first entered into the MBM spreadsheet. Although this model includes preset parameters for various cell lines, the input fields for cell-line type and culture medium were left empty for ZFL, and generic parameters were applied instead. Then, data for fractions of cell (fcell), total medium (fmedium), cell membrane (fmem) and the water phase of the medium (fw,medium) compartment were output (Table S5) and applied to each experimentally determined BDE-47 Cmedium to estimate the Cfree, MBM and Ccell, MBM at each exposure time.

[3] = set-up: method as in PMID 37289209; settings: initial exposure 20 mg·L^−1, HepG2 cell assay at 37 °C; cited from earlier work
[4] = Cnominal 1.8 mg·L^−1, first-order toxicokinetic fit k1/k2

## Brc1ccc(Oc2ccc(Br)cc2Br)c(Br)c1 [BDE-47, 2,2′,4,4′-tetrabromodiphenyl ether]
ZFL cells [1]; 24 h, 1.8 mg·L^−1, BDE-47 plus metabolites in cells, medium and losses
  Recovery in the mass balance: 77%
ZFL cells [1]; 24 h, 2.6 mg·L^−1
  Recovery in the mass balance: 79%
ZFL cells [1]; 48 h, 1.8 mg·L^−1
  Recovery in the mass balance: 70%
ZFL cells [1]; 48 h, 2.6 mg·L^−1
  Recovery in the mass balance: 82%
ZFL cells [1]; 72 h, 1.8 mg·L^−1
  Recovery in the mass balance: 74%
ZFL cells [1]; 72 h, 2.6 mg·L^−1
  Recovery in the mass balance: 97%
ZFL cells [1]; Cnominal 1.8 mg·L^−1
  average decrease of Cmedium over time from nominal concentration: 79%
  BCFexp, 24 h: 50 L/kg
  BCFexp, 48 h: 83 L/kg
  BCFexp, 72 h: 100 L/kg
ZFL cells [1]; [4]
  BCFk Ccell exp/Cfree,exp: 74,300 L·kg^−1
  BCFk Ccell exp/Cw: 30 L/kg
ZFL cells [1]; Cnominal 2.6 mg·L^−1
  average decrease of Cmedium over time from nominal concentration: 33%
  BCFexp, 24 h: 51 L/kg
  BCFexp, 48 h: 55 L/kg
  BCFexp, 72 h: 80 L/kg
ZFL cells [1]; Cnominal 2.6 mg·L^−1, first-order toxicokinetic fit k1/k2
  BCFk Ccell exp/Cfree,exp: 63,435 L·kg^−1
ZFL cells [2]; 24h, 1.8 mg·L-1, ZFL cells
  Ratio MBM/experimental of internal concentration: 51%
ZFL cells [2]; 24h, 2.6 mg·L-1, ZFL cells
  Ratio MBM/experimental of internal concentration: 73%
ZFL cells [2]; 48h, 1.8 mg·L-1, ZFL cells
  Ratio MBM/experimental of internal concentration: 44%
ZFL cells [2]; 48h, 2.6 mg·L-1, ZFL cells
  Ratio MBM/experimental of internal concentration: 78%
ZFL cells [2]; 72h, 1.8 mg·L-1, ZFL cells
  Ratio MBM/experimental of internal concentration: 36%
ZFL cells [2]; 72h, 2.6 mg·L-1, ZFL cells
  Ratio MBM/experimental of internal concentration: 66%
[3]
  volatilization loss: 14%
